The values below come from US20090018150A1, “5-Ht2b Receptor Antagonists” (ASTERAND UK LIMITED, priority 2003, published 2009).

Where a name gives a salt, the structure may show the parent alone.

The target of experiment [1] is T1, human cloned 5-HT2B receptors (Homo sapiens, UniProt P41595).
T1 construct: expressed in transfected cells; host or cells: CHO-K1
The experiment can be described thus: Human cloned 5-HT2B receptor binding assay. Particulars: [3H]LSD (1 nM) displacement, membranes of CHO-K1 cells expressing cloned 5-HT2B receptor; read-out: 5-HT2B pKi (converted). The procedure, abridged: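 Membranes from CHO-K1 cells expressing cloned receptor incubated 30 min at 37 °C with 1 nM [3H]LSD, 10 μM pargyline and compound (1×10^−10 to 1×10^−4 M) in 50 mM Tris-HCl pH 7.4, 4 mM CaCl2. Nonspecific binding with 100 μM 5-HT; filtration and scintillation counting, IC50 converted to Ki using Kd from saturation binding.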

For experiment [2], the target named is T2, cloned human 5-HT2A receptor (Homo sapiens, UniProt P28223).
T2 construct: purchased Euroscreen; host or cells: CHO-K1
T2 sequence (P28223 whole entry): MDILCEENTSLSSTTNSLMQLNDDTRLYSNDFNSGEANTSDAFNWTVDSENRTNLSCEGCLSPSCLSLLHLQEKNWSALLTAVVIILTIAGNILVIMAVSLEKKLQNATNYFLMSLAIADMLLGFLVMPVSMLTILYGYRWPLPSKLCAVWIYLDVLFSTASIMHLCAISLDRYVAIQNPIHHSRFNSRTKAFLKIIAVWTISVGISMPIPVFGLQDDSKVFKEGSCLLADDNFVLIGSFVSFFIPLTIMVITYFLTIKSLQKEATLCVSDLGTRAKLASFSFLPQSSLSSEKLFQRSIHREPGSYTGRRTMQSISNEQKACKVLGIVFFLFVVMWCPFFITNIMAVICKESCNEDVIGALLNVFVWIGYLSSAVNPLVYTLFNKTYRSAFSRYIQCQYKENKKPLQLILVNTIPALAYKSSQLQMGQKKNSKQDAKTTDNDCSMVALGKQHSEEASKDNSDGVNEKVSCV
The experiment can be described thus: Human 5-HT2A receptor binding assay. Particulars: [3H]ketanserin (1 nM) displacement, CHO-K1 cell membranes; read-out: 5-HT2A pKi (converted). A digest of the protocol: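 Competition binding with 15 μg membranes from CHO-K1 cells expressing cloned human receptor, 1 nM [3H]ketanserin, 10 μM pargyline, 50 mM Tris pH 7.4, compounds 1×10^−10 to 1×10^−4 M; 100 μM mianserin defined nonspecific binding. Incubated 15 min at 37 °C, filtered, counted; IC50 converted to Ki using saturation-derived Kd.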

The target in experiment [3] is T3, cloned human 5-HT2C receptor (Homo sapiens, UniProt P28335).
T3 construct: purchased Euroscreen; host or cells: CHO-K1
T3 sequence (P28335 33-458): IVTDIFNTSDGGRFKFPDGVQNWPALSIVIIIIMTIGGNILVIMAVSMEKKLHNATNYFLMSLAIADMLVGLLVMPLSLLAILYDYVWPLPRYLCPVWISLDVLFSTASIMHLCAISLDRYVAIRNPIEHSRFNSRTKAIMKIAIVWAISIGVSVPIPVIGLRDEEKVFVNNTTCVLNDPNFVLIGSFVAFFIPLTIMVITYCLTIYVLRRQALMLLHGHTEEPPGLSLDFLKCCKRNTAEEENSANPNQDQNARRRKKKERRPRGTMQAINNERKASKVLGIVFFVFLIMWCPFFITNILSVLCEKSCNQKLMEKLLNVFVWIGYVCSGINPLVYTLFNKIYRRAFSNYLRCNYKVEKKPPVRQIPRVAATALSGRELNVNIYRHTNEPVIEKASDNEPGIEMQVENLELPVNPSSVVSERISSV
The experiment can be described thus: Human 5-HT2C receptor binding assay. Particulars: [3H]mesulergine (1 nM) displacement, CHO-K1 cell membranes; read-out: 5-HT2C pKi (converted). A digest of the protocol:
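CHO-K1 cell membranes expressing the receptor (6 μg) competed against [^3H]mesulergine (1 nM) in 50 mM Tris-HCl pH 7.7, 0.1% ascorbic acid, 10 μM pargyline for 30 min at 37° C; compounds 1×10^−10 to 1×10^−4M. Nonspecific binding with 100 μM mianserin; filtration and scintillation counting. IC50 converted to Ki using saturation-derived Kd.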

T1 sequence (P41595 whole entry): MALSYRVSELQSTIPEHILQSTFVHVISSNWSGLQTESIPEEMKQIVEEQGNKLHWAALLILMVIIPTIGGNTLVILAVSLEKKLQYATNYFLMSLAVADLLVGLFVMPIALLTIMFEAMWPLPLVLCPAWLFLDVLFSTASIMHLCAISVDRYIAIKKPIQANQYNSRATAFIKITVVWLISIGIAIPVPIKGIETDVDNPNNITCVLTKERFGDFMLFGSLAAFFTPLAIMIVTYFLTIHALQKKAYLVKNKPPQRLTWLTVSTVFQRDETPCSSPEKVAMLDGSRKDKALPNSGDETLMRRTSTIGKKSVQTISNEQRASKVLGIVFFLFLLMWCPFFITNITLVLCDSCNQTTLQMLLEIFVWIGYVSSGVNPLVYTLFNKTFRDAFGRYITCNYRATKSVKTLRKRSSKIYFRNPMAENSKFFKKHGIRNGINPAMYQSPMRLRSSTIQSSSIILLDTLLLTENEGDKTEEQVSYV

Take `COc1ccc(-c2cccc(Nc3cc(C)nc(N)n3)c2)cc1OC` [Compound 10B, N-(3′,4′-dimethoxy-biphenyl-3-yl)-6-methyl-pyrimidine-2,4-diamine trifluoroacetic acid]: the Ki in experiment [1] is below 1000 nM; in experiment [2] it was above 10000 nM; in experiment [3], above 10000 nM.

Regarding `Cc1cc(Nc2cc(Br)ccc2O)nc(N)n1` [Compound 2O, 2-(2-amino-6-methyl-pyrimidin-4-ylamino)-4-bromo-phenol hydrochloride], the Ki is below 1000 nM in experiment [1], above 1000 nM in experiment [2] and above 100 nM in experiment [3].

`Cc1cc(Nc2cccc(-c3cccnc3)c2)nc(N)n1` [Compound 10D, 6-methyl-N^4-(3-pyridin-3-yl-phenyl)-pyrimidine-2,4-diamine bis trifluoroacetic acid]: the Ki was below 1000 nM in experiment [1], above 1000 nM in experiment [2] and above 1000 nM in experiment [3].

For `Cc1cc(Nc2ccccc2)nc(N)n1` [Compound 2A, N^4-phenyl-6-methyl-pyrimidine-2,4-diamine hydrochloric acid], the Ki in experiment [1] is below 1000 nM; in experiment [2], above 10000 nM; in experiment [3], above 1000 nM.

Turning to `Nc1ncc(-c2cccc(-c3cccc(O)c3)c2)o1` [Compound 209C, 3′-(2-Amino-oxazol-5-yl)-biphenyl-3-ol], the Ki is below 1000 nM in experiment [1], above 10000 nM in experiment [2] and above 10000 nM in experiment [3].

On to `Cc1cc(Nc2cccc(Oc3ccccc3)c2)nc(N)n1` [Compound 2AD, 6-methyl-N^4-(3-phenoxy-phenyl)-pyrimidine-2,4-diamine hydrochloride], for which the values for the Ki in experiment [1], in experiment [2] and in experiment [3] were below 1000 nM, above 316 nM and above 1000 nM, respectively.

For `Cc1cc(Nc2cccc(I)c2)nc(N)n1` [Compound 2G, N^4-(3-iodo-phenyl)-6-methyl-pyrimidine-2,4-diamine hydrochloride], the values for the Ki in experiment [1], in experiment [2] and in experiment [3] were below 100 nM, above 3160 nM and above 316 nM, respectively.

Regarding `Cc1nc(N)oc1-c1cccc(-c2ccccc2)c1` [Compound 219A, 5-biphenyl-3-yl-4-methyl-oxazol-2-ylamine, trifluoroacetic acid], the Ki in experiment [1] was below 316 nM; in experiment [2] it was above 1000 nM; in experiment [3], above 1000 nM.

As to `Cc1cccc(-c2ccc(Nc3cc(C)nc(N)n3)cc2)c1` [Compound 11B], the Ki in experiment [1] was below 10 nM; in experiment [2], above 1000 nM; in experiment [3] it was above 31.6 nM.

In the case of `COc1ccc(-c2c[nH]c(N)n2)c2ccccc12` [Compound 104B, 4-(4-Methoxy-naphthalen-1-yl)-1H-imidazol-2-ylamine], the Ki in experiment [1] is below 100 nM; in experiment [2] it was above 3160 nM; in experiment [3], above 3160 nM.

As to `Cc1cc(Oc2cccc(-c3ccccc3)c2)nc(N)n1` [Compound 4C, 4-(biphenyl-3-yloxy)-6-methylpyrimidin-2-ylamine], the Ki in experiment [1] was below 1000 nM; in experiment [2] it was above 10000 nM; in experiment [3], above 10000 nM.

With `COc1ccccc1-c1ccc(OC)c(-c2cnc(N)o2)c1` [Compound 224B, 5-(4,2′-dimethoxy-biphenyl-3-yl)-oxazol-2-ylamine, trifluoroacetic acid], the Ki was below 316 nM in experiment [1], above 1000 nM in experiment [2] and above 1000 nM in experiment [3].

As to `Cc1cc(Nc2ccc(C)c(Br)c2)nc(N)n1` [Compound 2S, N^4-(3-bromo-4-methyl-phenyl)-6-methyl-pyrimidine-2,4-diamine hydrochloride], the Ki in experiment [1] was below 100 nM; in experiment [2] it was above 1000 nM; in experiment [3], above 316 nM.

With `Cc1cccc(-c2cc(Nc3cc(C)nc(N)n3)ccc2C)c1` [Compound 12, N^4-(6,3′-dimethyl-biphenyl-3-yl)-6-methyl-pyrimidine-2,4-diamine], the Ki in experiment [1] was below 100 nM; in experiment [2], above 1000 nM; in experiment [3], above 1000 nM.

Consider `CC(=O)Nc1nc(-c2c(O)ccc3ccccc23)c[nH]1` [Compound 103Q, N-[4-(2-hydroxy-naphthalen-1-yl)-1H-imidazol-2-yl]-acetamide], for which the Ki in experiment [1] is below 1000 nM; in experiment [2], above 3160 nM; in experiment [3] it was above 1000 nM.

In the case of `Nc1nccc(Nc2ccc(I)cc2)n1` [Compound 16, N″-(4-Iodo-phenyl)-pyrimidine-2,4-diamine], the Ki in experiment [1] is below 1000 nM; in experiment [2], above 1000 nM; in experiment [3], above 1000 nM.

`Cn1nc(N)nc1Nc1cccc(-c2ccccc2)c1` [Compound 406A, N^5-biphenyl-3-yl-1-methyl-1H-[1,2,4]triazole-3,5-diamine]: the Ki in experiment [1] was below 316 nM; in experiment [2] it was above 1000 nM; in experiment [3] it was above 1000 nM.

On to `Cc1oc(N)nc1-c1cccc(-c2ccccc2)c1` [Compound 218A, 4-Biphenyl-3-yl-5-methyl-oxazol-2-ylamine, trifluoroacetic acid], for which the Ki was below 1000 nM in experiment [1], above 1000 nM in experiment [2] and above 1000 nM in experiment [3].

Consider `Cc1cc(Nc2cccc(-c3ccccc3)c2)nc(N)n1` [Compound 10A, N^4-biphenyl-3-yl-6-methyl-pyrimidine-2,4-diamine trifluoroacetic acid], for which the Ki in experiment [1] was below 100 nM; in experiment [2], above 100 nM; in experiment [3], above 316 nM.

On to `Cc1cc(Oc2cccc3ccccc23)nc(N)n1` [Compound 4B, 4-methyl-6-(naphthalen-1-yloxy)-pyrimidin-2-ylamine], for which the Ki is below 100 nM in experiment [1], above 10000 nM in experiment [2] and above 10000 nM in experiment [3].

As for `Cc1cc(Nc2ccc(F)c(F)c2)nc(N)n1` [Compound 2M, N^4-(3,4-difluoro-phenyl)-6-methyl-pyrimidine-2,4-diamine hydrochloride], the Ki was below 1000 nM in experiment [1], above 1000 nM in experiment [2] and above 1000 nM in experiment [3].

With `Cc1cccc(-c2ccc(Nc3nc(N)nn3C)cc2)c1` [Compound 410C, 1-methyl-N^5-(3′-methyl-biphenyl-4-yl)-1H-[1,2,4]triazole-3,5-diamine trifluoroacetic acid], the Ki in experiment [1] is below 1000 nM; in experiment [2], above 1000 nM; in experiment [3], above 1000 nM.

As for `Cc1cc(Nc2ccc3ncsc3c2)nc(N)n1` [Compound 2AB, N^4-benzothiazol-6-yl-6-methyl-pyrimidine-2,4-diamine hydrochloride], the Ki in experiment [1] is below 1000 nM; in experiment [2], above 1000 nM; in experiment [3], above 1000 nM.

On to `COc1ccccc1-c1cccc(-c2nc(N)oc2C)c1` [Compound 218C, 4-(2′-methoxy-biphenyl-3-yl)-5-methyl-oxazol-2-ylamine, trifluoroacetic acid], for which the Ki in experiment [1] was below 316 nM; in experiment [2], above 1000 nM; in experiment [3] it was above 1000 nM.

Consider `CC(=O)Nc1ncc(-c2sc3ccccc3c2C)[nH]1` [Compound 103O, N-[4-(3-Methyl-benzo[b]thiophen-2-yl)-1H-imidazol-2-yl]-acetamide], for which the Ki was below 1000 nM in experiment [1], above 10000 nM in experiment [2] and above 10000 nM in experiment [3].

For the molecule `Cc1cc(Nc2ccc(F)cc2)nc(N)n1` [Compound 2I, N^4-(4-fluoro-phenyl)-6-methyl-pyrimidine-2,4-diamine hydrochloride], the Ki is below 1000 nM in experiment [1], above 10000 nM in experiment [2] and above 1000 nM in experiment [3].
